Assay results from US20260049104A1, “PEPTIDES WITH ANTIMICROBIAL PROPERTIES” (priority 2022, published 2026).
In brackets after ≈: the same amount, converted by molar mass. Like-named read-outs stand apart in the source and are kept apart here.

How the values were obtained:
E. coli M6 [1] = tested on: E. coli M6
Protocol: Female C57BL/6NTac mice aged 6-8 weeks were acquired from InVivos Pte Ltd (Singapore, Singapore). Solutions for injections were prepared fresh in pharmaceutical grade saline and filter-sterilized. Murine peritonitis model was established according to literature. Briefly, healthy mice were rendered neutropenic by administering i.p. injection (0.5 mL) of cyclophosphamide on day −4 (150 mg/kg) and day −1 (100 mg/kg). On day 0, mice were infected with E. coli M6 (10^9 CFU/mL) through i.p. injection (0.1 mL). […] At 2 h post-treatment, mice were humanely euthanized by carbon dioxide asphyxiation and cervical dislocation. Sterile PBS (3 mL) was injected into the peritoneal cavity, followed by abdominal massage and collection of peritoneal fluid (1-2 mL). Blood (0.3-0.5 mL) was collected through cardiac puncture. Liver, spleen, and kidney were surgically removed and stored in 0.1% Triton X-100 (in PBS). Tissue homogenization was performed using gentleMACS dissociator (Miltenyi Biotec, Germany) by following a published protocol. Cell aggregates were removed using a 30 μm mesh MACS SmartStrainer (Miltenyi Biotec). Blood, peritoneal fluid, and tissue homogenates were plated on LB agar and incubated overnight for colony counting.

Morganella morganii = assay type: cell-based
Text: (§1) The experiments were repeated three times.

Bacillus subtilis = assay type: cell-based; settings: Bacillus subtilis ATCC 6633
Text: as §1

Pseudomonas aeruginosa = assay type: cell-based
Text: as §1

E. coli M6 [2] = tested on: E. coli M6; remark: listed apart in the source
Protocol: Resistance development of E. coli M6 against xenorceptide A2 was assessed by serial passaging of the bacteria in broth containing subinhibitory concentrations of the peptide. In brief, bacteria culture at mid-log phase was diluted to 10^5-10^6 CFU/mL in MHB containing 0.25×, 0.5×, 1×, 2×, and 4×MIC of the peptide. […] A new set of peptide concentration range was added to the cultures based on the latest MIC. This process was repeated over 14 days for three independent starting cultures.

E. coli M6 [3] = settings: E. coli M6, over 24 h
Protocol: Peptides stock solutions were diluted into MHB to desired concentrations. Bacteria culture in mid-log phase was diluted into MHB to yield 10^6 CFU/mL. The mixture was incubated at 37° C. with shaking. At each time point, 10 μL of the sample was drawn out and subjected to ten-fold serial dilution. 20 μL of relevant dilutions was dropped onto MHA plate using the drop plate method. The plate was incubated for 18-20 h at 37° C. Colony number was counted, and used for calculating the CFU/mL according to the equation:
CFU/mL=Colony count×50×dilution factor

Salmonella entereditis = Salmonella entereditis ATCC 13076
Protocol: (§2) MIC screening of the peptides against a panel of ATCC and clinical strains was performed using broth microdilution method.^1 Briefly, peptides stock solutions in DMSO (0.1/G TFA) were diluted into Mueller Hinton Broth (MHB), followed by two-fold serial dilution in a 96-well plate. Bacteria culture in mid-log phase was diluted into MHB to yield […] colony-forming units (CFU)/mL. Equal volume of the starting inoculum was added to the peptide samples, then incubated for 18-20 h (37° C., 120 rpm). OD600 of the samples was then measured using Tecan Infinite M200 (TECAN, Männedorf, Switzerland). MIC is defined as the lowest peptide concentration to achieve more than 90% reduction in OD600 relative to the drug-free control. The experiments were repeated three times. Colistin-resistant clinical isolates are a kind gift from Dr. Jeanette Koh (National University Hospital, Singapore). Multidrug-resistant clinical isolates are a kind gift from Dr. Lakshminarayanan Rajamani (Singapore Eye Research Institute, Singapore).

Enterobacteriaceae = tested on: Enterobacteriaceae
Protocol: as §2

Bacillus cereus = Bacillus cereus ATCC 11778
Protocol: as §2

Salmonella typhimurium = Salmonella typhimurium ATCC 14028
Protocol: as §2

Shigella flexneri = Shigella flexneri M90T
Protocol: as §2

[4] = 50 mg/kg single i.p. dose, 5 h post-treatment, neutropenic mice infected with E. coli M6
[5] = E. coli M6, sub-inhibitory concentrations, over two weeks

Structure (SMILES): CC(C)[C@@H]1NC(=O)[C@@H](N)Cc2c[nH]c3cc(ccc23)[C@H](C(N)=O)[C@@H](C(=O)N[C@@H](C)C(=O)N[C@H]2Cc3cccc(c3)[C@H](CCNC(=N)N)[C@@H](C(=O)N[C@H]3Cc4c[nH]c5cc(ccc45)[C@H](CCCN)[C@@H](C(=O)N[C@@H](CO)C(=O)N[C@@H](Cc4ccccc4)C(=O)O)NC(=O)[C@H](CO)NC3=O)NC(=O)[C@H](C)NC2=O)NC1=O [xenorceptide A2]
- decrease in colony count relative to saline control, blood (E. coli M6 [1]; [4]): 7 log
- decrease in colony count relative to saline control, liver (E. coli M6 [1]; [4]): 4 log
- decrease in colony count relative to saline control, peritoneal fluid (E. coli M6 [1]; [4]): 6 log
- reduction in bacteria burden, kidney (E. coli M6 [1]; [4]): 2 log
- reduction in bacteria burden, spleen (E. coli M6 [1]; [4]): 2 log
- in vivo efficacy compared with colistin (E. coli M6 [1]; both at 5 mg/kg, single i.p. dose): comparable efficacy to colistin
- MIC (Morganella morganii; Morganella morganii ATCC 25830): 32 mg/L (≈ 21.4 µM)
- MIC (Morganella morganii; Morganella morganii CRE1001): 32 mg/L (≈ 21.4 µM)
- MIC (Bacillus subtilis): >64 mg/L
- MIC (Pseudomonas aeruginosa; Pseudomonas aeruginosa ATCC 9027): 64 mg/L (≈ 42.9 µM)
- MIC (Pseudomonas aeruginosa; Pseudomonas aeruginosa DM4150R): 64 mg/L (≈ 42.9 µM)
- MIC (Pseudomonas aeruginosa; Pseudomonas aeruginosa DM23376): >64 mg/L
- MIC (Pseudomonas aeruginosa; Pseudomonas aeruginosa DR4877/07): 64 mg/L (≈ 42.9 µM)
- MIC (Pseudomonas aeruginosa; Pseudomonas aeruginosa DR5790/07): 64 mg/L (≈ 42.9 µM)
- level at which resistance development halted (E. coli M6 [2]; E. coli): 4 ×MIC
- period over which resistance development occurred (E. coli M6 [2]; E. coli): 6 to 8 days
- MIC of strains obtained by serial passage (E. coli M6 [2]; [5]): 32 mg/L
- resistance of strains obtained by serial passage (E. coli M6 [2]; [5]): ~4 fold
- bactericidal effect: reduction in bacteria count (E. coli M6 [3]; at 8×MIC): 3 log
- bactericidal effect: reduction in bacteria count (E. coli M6 [3]; at both 4× and 8×MIC): 3 log
- cytotoxicity: concentration up to which no cytotoxicity was shown (HepG2 human cells): > 256 µg/mL
- MIC (Escherichia coli; Escherichia coli ATCC 25922): 4 mg/L (≈ 2.68 µM)
- MIC (Escherichia coli; Escherichia coli CRE1006, carbapenem-resistant clinical isolate): 4 mg/L (≈ 2.68 µM)
- MIC (Escherichia coli; Escherichia coli M6, carbapenem- and colistin-resistant clinical isolate): 8 mg/L (≈ 5.36 µM)
- MIC (Escherichia coli; Escherichia coli M10, carbapenem- and colistin-resistant clinical isolate): 4 mg/L (≈ 2.68 µM)
- MIC (Escherichia coli; Escherichia coli M11, carbapenem- and colistin-resistant clinical isolate): 4 mg/L (≈ 2.68 µM)
- MIC (Staphylococcus aureus; Staphylococcus aureus ATCC 29737): >64 mg/L
- MIC (Staphylococcus aureus; Staphylococcus aureus ATCC 43300): >64 mg/L
- MIC (Acinetobacter baumannii; Acinetobacter baumannii ACBA1001): 32 mg/L (≈ 21.4 µM)
- MIC (Acinetobacter baumannii; Acinetobacter baumannii ACBA1002): 32 mg/L (≈ 21.4 µM)
- MIC (Acinetobacter baumannii; Acinetobacter baumannii ACBA1003): 32 mg/L (≈ 21.4 µM)
- MIC (Acinetobacter baumannii; Acinetobacter baumannii ACBA1004): 64 mg/L (≈ 42.9 µM)
- MIC (Acinetobacter baumannii; Acinetobacter baumannii ATCC 19606): >64 mg/L
- MIC (Klebsiella pneumoniae; Klebsiella pneumoniae ATCC 700603): 8 mg/L (≈ 5.36 µM)
- MIC (Klebsiella pneumoniae; Klebsiella pneumoniae CRE 1007): 8 mg/L (≈ 5.36 µM)
- MIC (Klebsiella pneumoniae; Klebsiella pneumoniae CRE1008): 8 mg/L (≈ 5.36 µM)
- MIC (Klebsiella pneumoniae; Klebsiella pneumoniae CRE1011): 8 mg/L (≈ 5.36 µM)
- MIC (Klebsiella pneumoniae; Klebsiella pneumoniae CRE1012): 8 mg/L (≈ 5.36 µM)
- MIC (Enterobacter cloacae; Enterobacter cloacae CRE1010): 4 mg/L (≈ 2.68 µM)
- MIC (Enterobacter cloacae; Enterobacter cloacae CRE1014): 16 mg/L (≈ 10.7 µM)
- MIC (Enterobacter cloacae; Enterobacter cloacae CRE1015): 32 mg/L (≈ 21.4 µM)
- MIC (Enterobacter cloacae; Enterobacter cloacae CRE1016): 16 mg/L (≈ 10.7 µM)
- MIC (Enterobacter cloacae; Enterobacter cloacae CRE1017): 32 mg/L (≈ 21.4 µM)
- MIC (Salmonella entereditis): 8 mg/L (≈ 5.36 µM)
- potency compared with dynobactin and darobactin (Enterobacteriaceae; against Enterobactericeae): more potent than dynobactin and has comparable potency to darobactin
- MIC values (Enterobacteriaceae; several carbapenamase-resistant Enterobacteriaceae (CRE)): 4 to 8 mg/L
- MIC (Bacillus cereus): >64 mg/L
- MIC (Salmonella typhimurium): 8 mg/L (≈ 5.36 µM)
- MIC (Shigella flexneri): 2 mg/L (≈ 1.34 µM)
